Assay results from patent US7638509B2, “Diene compounds and formulations” (priority 2003, dated 2009).

How the values were obtained:
AR = biological target: T1, AR (Homo sapiens, UniProt P10275, T878A); assay: Adiol-induced AR transcription, MMTV-Luc in LNCaP cells; format: cell-based; conditions: 2.5 nM Adiol, compound at 1 μM
T1 construct: LNCaP without transfection; endogenous in cells; host or cells: LNCaP
T1 sequence (P10275 1-920 T878A): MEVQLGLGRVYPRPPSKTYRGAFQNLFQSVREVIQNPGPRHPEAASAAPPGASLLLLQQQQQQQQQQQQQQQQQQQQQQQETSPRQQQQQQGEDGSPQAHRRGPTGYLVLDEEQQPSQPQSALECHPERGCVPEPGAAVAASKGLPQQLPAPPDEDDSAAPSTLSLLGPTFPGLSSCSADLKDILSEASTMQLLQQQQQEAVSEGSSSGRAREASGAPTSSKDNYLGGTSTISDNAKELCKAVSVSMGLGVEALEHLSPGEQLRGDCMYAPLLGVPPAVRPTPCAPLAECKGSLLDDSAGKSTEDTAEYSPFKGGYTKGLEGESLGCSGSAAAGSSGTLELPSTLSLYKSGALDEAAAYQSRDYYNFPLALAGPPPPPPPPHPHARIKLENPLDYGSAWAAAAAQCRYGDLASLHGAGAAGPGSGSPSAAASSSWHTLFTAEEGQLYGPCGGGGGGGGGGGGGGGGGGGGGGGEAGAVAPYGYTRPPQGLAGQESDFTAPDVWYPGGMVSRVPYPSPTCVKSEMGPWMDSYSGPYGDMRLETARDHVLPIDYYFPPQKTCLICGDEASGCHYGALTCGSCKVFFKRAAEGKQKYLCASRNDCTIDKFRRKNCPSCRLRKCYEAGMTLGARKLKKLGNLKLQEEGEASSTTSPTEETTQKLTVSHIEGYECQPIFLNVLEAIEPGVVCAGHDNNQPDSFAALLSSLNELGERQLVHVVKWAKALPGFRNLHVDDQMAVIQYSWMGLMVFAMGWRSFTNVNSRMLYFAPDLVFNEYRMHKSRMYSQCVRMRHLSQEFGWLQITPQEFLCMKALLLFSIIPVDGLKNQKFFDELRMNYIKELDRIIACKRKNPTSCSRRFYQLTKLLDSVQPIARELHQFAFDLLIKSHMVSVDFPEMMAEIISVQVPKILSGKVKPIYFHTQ
Experimental: Cell Culture, Transfection, and Reporter Gene Assay. The human prostate cancer cell lines, LNCaP, PC-3, and DU145, and non-prostate cancer cell line COS-1 were maintained in RPMI or Dulbecco's modified Eagle's medium (DMEM) (Life Technologies) supplemented with 10% fetal bovine serum (FBS). Transfections and luciferase (Luc) assays were performed as previously described (Miyamoto, H., Yeh, S., Wilding, G. & Chang, C. (1998) Proc. Natl. Acad. Sci. USA 95, 7379-7384; Miyamoto, H., Rahman, M., Takatera, H., Kang, H.-Y., Yeh, S., Chang, H.-C., Nishimura, K., Fujimoto, N. & Chang, C. (2002) J. Biol. Chem. 277, 4609-4617). Briefly, cells seeded to reach a density of 50-60% confluence in 12 well tissue culture plates were transfected with 1.5 μg of DNA according to “SuperFect transfection” instructions (Qiagen). After 2-3 h incubation, cells were treated with medium supplemented with charcoal-stripped FBS containing either ethanol or ligands for 24 h. The cells were then harvested and whole cell extracts were used for Luc assay. The Luc activity was determined using a Dual-Luciferase Reporter Assay System (Promega) and luminometer.
Effect of ADEK on AR Transcription. […] (set as 100%). Values were obtained from the mean±SD of at least three determinations.

[1] = biological target: T2, glucocorticoid receptor (GR) (Homo sapiens, UniProt P04150); assay: Steroid hormone specificity, GR/MMTV-Luc in PC-3 cells; format: cell-based; conditions: PC-3, GR/MMTV-Luc, ADEK at 0.01 mM, 0.1 mM and 1.0 mM, 24 h
T2 construct: expressed in transfected cells; host or cells: PC-3
T2 sequence (P04150 1-777): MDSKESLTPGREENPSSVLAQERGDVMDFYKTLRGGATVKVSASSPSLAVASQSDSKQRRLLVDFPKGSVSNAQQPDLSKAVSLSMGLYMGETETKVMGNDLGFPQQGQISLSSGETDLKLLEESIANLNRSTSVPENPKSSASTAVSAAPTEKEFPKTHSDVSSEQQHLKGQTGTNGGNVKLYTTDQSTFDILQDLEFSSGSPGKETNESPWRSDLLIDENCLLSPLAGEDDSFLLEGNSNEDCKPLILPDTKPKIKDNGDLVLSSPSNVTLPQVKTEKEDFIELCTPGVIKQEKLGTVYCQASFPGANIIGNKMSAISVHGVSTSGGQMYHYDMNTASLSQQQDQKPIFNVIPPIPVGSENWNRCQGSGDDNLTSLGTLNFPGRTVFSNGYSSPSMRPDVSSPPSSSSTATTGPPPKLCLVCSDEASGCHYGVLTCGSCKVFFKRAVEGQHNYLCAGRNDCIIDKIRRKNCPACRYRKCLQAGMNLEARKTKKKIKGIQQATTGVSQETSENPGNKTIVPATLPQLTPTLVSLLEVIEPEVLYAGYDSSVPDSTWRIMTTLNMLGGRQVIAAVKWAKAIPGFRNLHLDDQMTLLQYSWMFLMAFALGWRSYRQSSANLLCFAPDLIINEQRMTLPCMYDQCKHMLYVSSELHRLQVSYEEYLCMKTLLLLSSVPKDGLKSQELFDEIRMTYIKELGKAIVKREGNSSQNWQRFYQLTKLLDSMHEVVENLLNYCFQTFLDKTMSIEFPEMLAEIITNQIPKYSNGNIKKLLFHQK
Experimental: Cell Culture, Transfection, and Reporter Gene Assay. The human prostate cancer cell lines, LNCaP, PC-3, and DU145, and non-prostate cancer cell line COS-1 were maintained in RPMI or Dulbecco's modified Eagle's medium (DMEM) (Life Technologies) supplemented with 10% fetal bovine serum (FBS). Transfections and luciferase (Luc) assays were performed as previously described (Miyamoto, H., Yeh, S., Wilding, G. & Chang, C. (1998) Proc. Natl. Acad. Sci. USA 95, 7379-7384; Miyamoto, H., Rahman, M., Takatera, H., Kang, H.-Y., Yeh, S., Chang, H.-C., Nishimura, K., Fujimoto, N. & Chang, C. (2002) J. Biol. Chem. 277, 4609-4617). Briefly, cells seeded to reach a density of 50-60% confluence in 12 well tissue culture plates were transfected with 1.5 μg of DNA according to “SuperFect transfection” instructions (Qiagen). […] The Luc activity was determined using a Dual-Luciferase Reporter Assay System (Promega) and luminometer.
Steroid Hormone Specificity of ADEK. To characterize the steroid hormone activity of ADEK, PC-3 cells were transfected with steroid receptor/reporter (progesterone receptor (PR)/MMTV-Luc, glucocorticoid receptor (GR)/MMTV-Luc, or estrogen receptor (ER)/ERE-Luc) and analyzed for expression of the Luc reporter gene. […] The Luc activity was measured relative to that of ETOH treatment (set as 1-fold). […]

What does the source list for `CC(=O)O[C@H]1C=C[C@@]2(C)C(=CC[C@@H]3[C@@H]2CC[C@@]2(C)[C@H]3CCC23OCCO3)C1` [ADEK, 3β-acetoxy-17,17-ethylenedioxyandrosta-1,5-diene]?
repression of Adiol-induced AR transcription (AR): ~58%; glucocorticoid activity (in words) [1]: no significant
